The source of these data is paper PMC9887005, “Regioselective protein oxidative cleavage enabled by enzyme-like recognition of an inorganic metal oxo cluster ligand” (Nature Communications, 2023).

The target of the experiment is T1, hen egg white lysozyme (HEWL) (Gallus gallus, UniProt P00698).
T1 construct: gene LYZ
Description: tryptophan fluorescence quenching. Particulars: 10 mM tris-HCl pH 7.5, room temperature; 10 µM HEWL, excitation 295 nm; double-log; fitted together with number of bound quencher molecules n. Type of experiment: binding. The source says: tryptophan fluorescence quenching on hen egg white lysozyme (HEWL)

T1 sequence (P00698 19-147): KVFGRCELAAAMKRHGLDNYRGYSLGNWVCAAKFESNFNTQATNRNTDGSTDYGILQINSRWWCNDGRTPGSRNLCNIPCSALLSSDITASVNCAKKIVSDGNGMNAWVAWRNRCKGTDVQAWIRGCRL

As to Cu^IIWD, the “Ka” value came to 6.76e+08 M⁻¹. Take α2WD: the “Ka” value was 6.91e+08 M⁻¹.
